What was measured:
[1] = tested on: protein tyrosine phosphatase (PTP); experiment: TCAL-SAMDI assay of PTP activity, inhibitors applied to cells cultured on the monolayer; type: cell-based
Description: HeLa cells and MDA-MB-231 cells were obtained from ATCC and cultured in αMEM (for HeLa cells) or high-glucose DMEM (for MDA-MB-231 cells) medium supplemented with 10% fetal bovine serum, glutamax, penicillin and streptomycin. All cells were cultured in a humidified incubator at 37° C. and CO2. Cells were trypsinized and suspended in media, and the average number of cells per μL was counted using a hemocytometer and Countess automated cell counter (Life Technologies), and cell concentrations were adjusted to seed the desired number of cells per spot in 3 μL media. Cells were cultured on the monolayers presenting RGD and peptide substrates on steel plates or glass slides for two hours under standard growth conditions. For PTP activity assays, cells were cultured for two hours before addition of inhibitors, if any. […] A 30 mg/mL solution of 2,4,6-trihydroxyacetophenone in acetone was delivered to each spot on the array and the surfaces were analyzed using an AB Sciex 5800 MALDI TOF/TOF instrument in positive reflector mode. The area under the curves for the [M+H]^+ peaks of disulfides was measured with the Data Explorer software (AB Sciex). […]
MDA-MB-231 cells were seeded at 75 cells per spot on monolayers presenting phosphatase peptide substrates and cyclic RGD as described above. […] IC50 values and curves were determined using GraphPad prism software.

[2] = tested on: protein tyrosine phosphatase (PTP); experiment: SAMDI assay of PTP activity in cell lysate treated with inhibitor and applied to the monolayer; type: biochemical; settings: treatment of MDA-MB-231 cell lysate (rather than cells), read-out: PTP inhibition, IC50
Description: MDA-MB-231 cells were lysed using the lysis buffer containing protease inhibitor described above to achieve the equivalent of 75 cells per 1.5 μL, after mixing with inhibitor solutions. Inhibitor solutions in lysis buffer at concentrations ranging from 0 to 640 μM were added to the lysate and 1.5 μL of the mixture was spotted on monolayers presenting cyclic RGD and phosphatase substrate. The reaction was carried out for 1 hour at 37° C. in a humidified chamber. To evaluate dose-response inhibition under standard culture conditions, MDA-MB-231 cells were plated on a 96-well plate at a density of 6,400 cells per well and cultured for two hours. Culture medium containing inhibitors at final concentrations ranging from 0 to 300 μM and 1% DMSO were delivered to each well and culture proceeded for another two hours. The mixture containing media and inhibitor was removed from each well and centrifuged. Lysis buffer containing protease inhibitor was applied to each well in the plate and incubated for 10 minutes at room temperature. The lysate was collected and added to the corresponding cell pellet for each inhibitor concentration sample. […] Protein concentrations were measured using a BCA assay (Santa Cruz Biotechnology), following manufacturer instructions. […] IC50 values and curves were determined using GraphPad prism software.

Row | Compound | PTP inhibition ([1]; treatment of cells, inhibitor concentration up to 160 μM) | IC50 [2] [µM] | IC50 ([1]; treatment of cultured MDA-MB-231 cells on monolayer for two hours, then lysis in place, read-out: inhibition of PTP activity, IC50) [µM]
1 | O=C1C(=NNc2ccc(S(=O)(=O)O)cc2)C(c2ccc([N+](=O)[O-])cc2)=NN1c1ccccc1 [PHPS1] | did not show PTP inhibition | 75 | 
2 | O=C(CBr)c1ccc(O)cc1 [PTPI-I] |  | 83 | 14
